From patent publication US9850247B2 (Almac Discovery Limited, priority 2013, dated 2017)

Experiments:
[1] = CLint estimates using human liver microsomes (Method 4); format: in vitro ADME; conditions: pH 7.4, 1 μM compound, read-out: Mics - CLint (HLM CLint)
Outline: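 Depletion measured by LC/MS/MS in MRM mode over 2–50 min after starting reactions with 1 mM NADPH. Incubations used 0.5 mg/mL human liver microsomal protein, 1 μM compound, 0.1% DMSO, pH 7.4 phosphate buffer, 37 °C. ln peak area plotted against time; the gradient gave t½ and intrinsic clearance.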

[2] = system: phospho-cdc2 (Tyr15) in HT-29 cells; experiment: Effect on Cdc2 phosphorylation at Tyr15, Cell-Based ELISA Base Kit (Method 3); conditions: Homo sapiens, HT-29, 8 h, eight hours incubation, normalized to total cdc2, read-out: HT29 pCDC2 method 3
Outline: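 HT-29 cells were treated with compounds for 8 h at 37 °C, then fixed in 4% formaldehyde. Phospho-cdc2 (Tyr15) and total cdc2 were read by dual-fluorogenic cell-based ELISA at 600/450 nm. Phospho signal was normalized to total cdc2 and expressed as % of DMSO control, and EC50 came from non-linear regression.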

Wee-1 kinase = target: T1, Wee-1 kinase (Homo sapiens, UniProt P30291); experiment: Measurement of Wee-1 kinase activity (ADP-Glo luminescent kit); format: biochemical
T1 construct: purchased Invitrogen PV3817
T1 sequence (P30291 whole entry): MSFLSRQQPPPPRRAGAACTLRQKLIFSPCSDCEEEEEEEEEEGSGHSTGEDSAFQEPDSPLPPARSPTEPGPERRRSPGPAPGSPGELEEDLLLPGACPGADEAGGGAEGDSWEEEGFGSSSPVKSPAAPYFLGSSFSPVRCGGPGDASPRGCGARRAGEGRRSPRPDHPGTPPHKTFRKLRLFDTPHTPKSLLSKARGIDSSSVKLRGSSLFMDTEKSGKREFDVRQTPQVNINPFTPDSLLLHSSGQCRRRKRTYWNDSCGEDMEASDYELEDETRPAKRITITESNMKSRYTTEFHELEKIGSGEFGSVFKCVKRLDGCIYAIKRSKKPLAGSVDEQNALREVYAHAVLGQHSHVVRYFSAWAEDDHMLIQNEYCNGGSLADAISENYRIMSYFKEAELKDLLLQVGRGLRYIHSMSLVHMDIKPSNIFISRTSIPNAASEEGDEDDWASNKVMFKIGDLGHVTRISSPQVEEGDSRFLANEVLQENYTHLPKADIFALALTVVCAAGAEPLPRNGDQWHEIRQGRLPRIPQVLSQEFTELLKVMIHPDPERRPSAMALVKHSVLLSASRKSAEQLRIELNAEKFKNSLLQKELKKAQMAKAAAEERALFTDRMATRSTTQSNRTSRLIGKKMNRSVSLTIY
Outline: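 ADP-Glo luminescence reads ADP made over 1 h at RT, after an aliquot of 30 μM ATP and 2.0 μg/mL poly(Lys,Tyr 4:1) substrate. Before that, the kinase sat 30 min with inhibitor in Tris-HCl/MgCl2 buffer with BSA and DTT. IC50 came from regression of percent inhibition.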

Row | microsomal CLint at 1 μM [1] [µL/min/mg] | IC50 (Wee-1 kinase) [nM] | Compound | EC50 [2] [nM]
1 | ≤ 15 | 10 to 100 | COC[C@H]1CN(c2ccc(Nc3ncc4c(n3)N(C)CN(c3c(F)cccc3Cl)C4=O)cc2)CCN1 [Example 126, (R)-3-(2-chloro-6-fluorophenyl)-7-((4-(3-(methoxymethyl)piperazin-1-yl)phenyl)amino)-1-methyl-2,3-dihydropyrimido[4,5-d]pyrimidin-4(1H)-one] | ≥ 1000
2 | ≤ 15 | ≤ 10 | CN1CN(c2c(Cl)cccc2Cl)C(=O)c2cnc(Nc3ccc(N4CCNC[C@H]4CO)cc3)nc21 [Example 127, (S)-3-(2,6-dichlorophenyl)-7-((4-(2-(hydroxymethyl)piperazin-1-yl)phenyl)amino)-1-methyl-2,3-dihydropyrimido[4,5-d]pyrimidin-4(1H)-one] | ≥ 1000
3 | 15 to 50 | 10 to 100 | CN1CCN(c2ccc(Nc3ncc4c(n3)N(C)CN(c3c(Cl)cccc3Cl)C4=O)cc2)[C@H](CO)C1 [Example 128, (S)-3-(2,6-dichlorophenyl)-7-((4-(2-(hydroxymethyl)-4-methylpiperazin-1-yl)phenyl)amino)-1-methyl-2,3-dihydropyrimido[4,5-d]pyrimidin-4(1H)-one] | 100 to 1000
4 | ≤ 15 | ≤ 10 | C[C@@H]1CN(c2ccc(Nc3ncc4c(n3)N(C)CN(c3c(Cl)cccc3Cl)C4=O)cc2C(O)C(F)F)CCN1 (stereo partly drawn) [Example 134, 3-(2,6-dichlorophenyl)-7-((3-(2,2-difluoro-1-hydroxyethyl)-4-((R)-3-methylpiperazin-1-yl)phenyl)amino)-1-methyl-2,3-dihydropyrimido[4,5-d]pyrimidin-4(1H)-one] | 100 to 1000
5 | ≤ 15 | ≤ 10 | COC[C@H]1CN(c2ccc(Nc3ncc4c(n3)N(C)CN(c3c(Cl)cccc3Cl)C4=O)cc2CO)CCN1 [Example 135, (R)-3-(2,6-dichlorophenyl)-7-((3-(hydroxymethyl)-4-(3-(methoxymethyl)piperazin-1-yl)phenyl)amino)-1-methyl-2,3-dihydropyrimido[4,5-d]pyrimidin-4(1H)-one] | 100 to 1000
6 | ≥ 50 | 10 to 100 | CNCc1cc(Nc2ncc3c(n2)N(C)CN(c2c(Cl)cccc2Cl)C3=O)ccc1N1CCCC1 [Example 137, 3-(2,6-dichlorophenyl)-1-methyl-7-((3-((methylamino)methyl)-4-(pyrrolidin-1-yl)phenyl)amino)-2,3-dihydropyrimido[4,5-d]pyrimidin-4(1H)-one] | 100 to 1000
7 | 15 to 50 | 10 to 100 | C[C@@H]1CN(c2ccc(Nc3ncc4c(n3)N(C)CN(c3c(Cl)cccc3Cl)C4=O)cc2C(C)(C)O)CCN1 [Example 140, (R)-3-(2,6-dichlorophenyl)-7-((3-(2-hydroxypropan-2-yl)-4-(3-methylpiperazin-1-yl)phenyl)amino)-1-methyl-2,3dihydropyrimido [4,5-d]pyrimidin-4(1H)-one] | ≥ 1000
8 | ≤ 15 | ≤ 10 | CN1CN(c2c(Cl)cccc2Cl)C(=O)c2cnc(Nc3ccc(N4CCNCC4)c(CNCC(F)(F)F)c3)nc21 [Example 141, 3-(2,6-dichlorophenyl)-1-methyl-7-((4-(piperazin-1-yl)-3-(((2,2,2-trifluoroethyl)amino)methyl)phenyl)amino)-2,3-dihydropyrimido[4,5-d]pyrimidin-4(1H)-one] | ≥ 1000
9 | ≤ 15 | ≤ 10 | CNCc1cc(Nc2ncc3c(n2)N(C)CN(c2c(Cl)cccc2Cl)C3=O)ccc1N1CCN(C(C)=O)CC1 [Example 143, 7-((4-(4-acetylpiperazin-1-yl)-3-((methylamino)methyl)phenyl)amino)-3-(2,6-dichlorophenyl)-1-methyl-2,3-dihydropyrimido[4,5-d]pyrimidin-4(1H)-one] | ≥ 1000
10 | 15 to 50 | ≤ 10 | CC(=O)N1CCN(c2ccc(Nc3ncc4c(n3)N(C)CN(c3c(Cl)cccc3Cl)C4=O)cc2CN(C)C)CC1 [Example 144, 7-((4-(4-acetylpiperazin-1-yl)-3-((dimethylamino)methyl)phenyl)amino)-3-(2,6-dichlorophenyl)-1-methyl-2,3-dihydropyrimido[4,5-d]pyrimidin-4(1H)-one] | 100 to 1000
11 | ≤ 15 | ≤ 10 | CNCc1cc(Nc2ncc3c(n2)N(C)CN(c2c(Cl)cccc2Cl)C3=O)ccc1N1CCS(=O)(=O)CC1 [Example 146, 3-(2,6-dichlorophenyl)-7-((4-(1,1-dioxidothiomorpholino)-3-((methylamino)methyl)phenyl)amino)-1-methyl-2,3-dihydropyrimido[4,5-d]pyrimidin-4(1H)-one] | ≥ 1000
12 | ≤ 15 | ≤ 10 | CNCc1cc(Nc2ncc3c(n2)N(C)CN(c2c(Cl)cccc2Cl)C3=O)ccc1N1CCC(F)(F)CC1 [Example 147, 3-(2,6-dichlorophenyl)-7-((4-(4,4-difluoropiperidin-1-yl)-3-((methylamino)methyl)phenyl)amino)-1-methyl-2,3-dihydropyrimido[4,5-d]pyrimidin-4(1H)-one] | 100 to 1000
13 | 15 to 50 | ≤ 10 | CNCc1cc(Nc2ncc3c(n2)N(C)CN(c2c(Cl)cccc2Cl)C3=O)ccc1N1C[C@@H](C)O[C@@H](C)C1 [Example 148, 3-(2,6-dichlorophenyl)-7-((4-((2S,6R)-2,6-dimethylmorpholino)-3-((methylamino)methyl)phenyl)amino)-1-methyl-2,3-dihydropyrimido[4,5-d]pyrimidin-4(1H)-one] | 100 to 1000
14 | ≤ 15 | ≤ 10 | CN(C)Cc1cc(Nc2ncc3c(n2)N(C)CN(c2c(Cl)cccc2Cl)C3=O)ccc1N1CCS(=O)(=O)CC1 [Example 149, 3-(2,6-dichlorophenyl)-7-((3-((dimethylamino)methyl)-4-(1,1-dioxidothiomorpholino)phenyl)amino)-1-methyl-2,3-dihydropyrimido[4,5-d]pyrimidin-4(1H)-one] | 100 to 1000
15 | ≥ 50 | 10 to 100 | CN(C)Cc1cc(Nc2ncc3c(n2)N(C)CN(c2c(Cl)cccc2Cl)C3=O)ccc1N1CCC(F)(F)CC1 [Example 150, 3-(2,6-dichlorophenyl)-7-((4-(4,4-difluoropiperidin-1-yl)-3-((dimethylamino)methyl)phenyl)amino)-1-methyl-2,3-dihydropyrimido[4,5-d]pyrimidin-4(1H)-one] | 100 to 1000
16 | ≥ 50 | ≤ 10 | C[C@@H]1CN(c2ccc(Nc3ncc4c(n3)N(C)CN(c3c(Cl)cccc3Cl)C4=O)cc2CN(C)C)C[C@H](C)O1 [Example 151, 3-(2,6-dichlorophenyl)-7-((3-((dimethylamino)methyl)-4-((2S,6R)-2,6-dimethylmorpholino)phenyl)amino)-1-methyl-2,3-dihydropyrimido[4,5-d]pyrimidin-4(1H)-one] | 100 to 1000
17 | 15 to 50 | ≤ 10 | CNCc1cc(Nc2ncc3c(n2)N(C)CN(c2c(Cl)cccc2Cl)C3=O)ccc1N(C)C [Example 153, 3-(2,6-dichlorophenyl)-7-((4-(dimethylamino)-3-((methylamino)methyl)phenyl)amino)-1-methyl-2,3-dihydropyrimido[4,5-d]pyrimidin-4(1H)-one] | 100 to 1000
18 | 15 to 50 | ≤ 10 | CN(C)Cc1cc(Nc2ncc3c(n2)N(C)CN(c2c(Cl)cccc2Cl)C3=O)ccc1N1CCOCC1 [Example 154, 3-(2,6-dichlorophenyl)-7-((3-((dimethylamino)methyl)-4-morpholinophenyl)amino)-1-methyl-2,3-dihydropyrimido[4,5-d]pyrimidin-4(1H)-one] | 100 to 1000
19 | ≤ 15 | ≤ 10 | C[C@@H]1CN(c2ccc(Nc3ncc4c(n3)N(C)CN(c3c(Cl)cccc3Cl)C4=O)cc2CO)C[C@H](C)N1 [Example 158, 3-(2,6-dichlorophenyl)-7-((4-((3S,5R)-3,5-dimethylpiperazin-1-yl)-3-(hydroxymethyl)phenyl)amino)-1-methyl-2,3-dihydropyrimido[4,5-d]pyrimidin-4(1H)-one] | 100 to 1000
20 | 15 to 50 | ≤ 10 | CN(C)CC(=O)N1CCN(c2ccc(Nc3ncc4c(n3)N(C)CN(c3c(Cl)cccc3Cl)C4=O)cc2CO)CC1 [Example 161, 3-(2,6-dichlorophenyl)-7-((4-(4-(2-(dimethylamino)acetyl)piperazin-1-yl)-3-(hydroxymethyl)phenyl)amino)-1-methyl-2,3-dihydropyrimido[4,5-d]pyrimidin-4(1H)-one] | 100 to 1000
21 | ≤ 15 | ≤ 10 | CN1CCC(c2ccc(Nc3ncc4c(n3)N(C)CN(c3c(Cl)cccc3Cl)C4=O)cc2CO)CC1 [Example 165, 3-(2,6-dichlorophenyl)-7-((3-(hydroxymethyl)-4-(1-methylpiperidin-4-yl)phenyl)amino)-1-methyl-2,3-dihydropyrimido[4,5-d]pyrimidin-4(1H)-one] | 100 to 1000
